From patent US7399769B2, “Aryl-isoxazol-4-yl-imidazo[1,5-a]pyridine derivatives” (Hoffmann-La Roche Inc., priority 2005, dated 2008)

Biological target: T1, human GABA A receptor α5β3γ2 (hα5) (Homo sapiens, UniProt P18507+P31644)
T1 construct: expressed in transfected cells; host or cells: HEK293 (transient transfection); membranes prepared from cell pellets
Experiment: [3H]flumazenil competition binding, human GABA A α5β3γ2 receptors in HEK293 cells
Conditions: displacement of [3H]flumazenil 0.5 nM; HEK293 cells transiently transfected with human receptors; mean of two determinations
Description: Membrane Preparation and Binding Assay
The affinity of compounds at GABA A receptor subtypes was measured by competition for [3H]flumazenil (85 Ci/mmol; Roche) binding to HEK293 cells expressing rat (stably transfected) or human (transiently transfected) receptors of composition α1β3γ2, α2β3γ2, α3β3γ2 and α5β3γ2.
Cell pellets were suspended in Krebs-tris buffer (4.8 mM KCl, 1.2 mM CaCl2, 1.2 mM MgCl2, 120 mM NaCl, 15 mM Tris; pH 7.5; binding assay buffer), homogenized by polytron for ca. 20 sec on ice and centrifuged for 60 min at 4° C. (50000 g; Sorvall, rotor: SM24=20000 rpm). The cell pellets were resuspended in Krebs-tris buffer and homogenized by polytron for ca. 15 sec on ice. Protein was measured (Bradford method, Bio-Rad) and aliquots of 1 mL were prepared and stored at −80° C.
Radioligand binding assays were carried out in a volume of […] (96-well plates) which contained […] of cell membranes, [3H]flumazenil at a concentration of 1 nM for α1, α2, α3 subunits and 0.5 nM for α5 subunits and the test compound in the range of […]. Nonspecific binding was defined by 10^−5 M diazepam and typically represented less than 5% of the total binding. […] After drying, filter-retained radioactivity was detected by liquid scintillation counting. Ki values were calculated using Excel-Fit (Microsoft) and are the means of two determinations. […]

- Ki: 77.9 nM
SMILES: Cc1onc(-c2ccccc2)c1-c1ncc2ccccn12 [Example 1, 3-(5-Methyl-3-phenyl-isoxazol-4-yl)-imidazo[1,5-a]pyridine]
